Values joined by “and” are separate entries in the source; they are usually repeats but may differ in a detail not shown here. Equal entries are not always repeated.
How the values were obtained:
[1] = molecular target: T1, mutant IDH1 (IDH1 R132H) in MOLM14 R132 cell line construct (Homo sapiens, UniProt O75874, R132H); assay: 2-HG Inhibition Assay (LC-MS of cell culture supernatant); type: cell-based; settings: for 2-HG: 4 days, MOLM14 R132, doxycycline-induced, culture media
T1 construct: FLAG; host or cells: MOLM14 human leukemia cells (lentiviral, doxycycline-induced)
T1 sequence (O75874 whole entry R132H): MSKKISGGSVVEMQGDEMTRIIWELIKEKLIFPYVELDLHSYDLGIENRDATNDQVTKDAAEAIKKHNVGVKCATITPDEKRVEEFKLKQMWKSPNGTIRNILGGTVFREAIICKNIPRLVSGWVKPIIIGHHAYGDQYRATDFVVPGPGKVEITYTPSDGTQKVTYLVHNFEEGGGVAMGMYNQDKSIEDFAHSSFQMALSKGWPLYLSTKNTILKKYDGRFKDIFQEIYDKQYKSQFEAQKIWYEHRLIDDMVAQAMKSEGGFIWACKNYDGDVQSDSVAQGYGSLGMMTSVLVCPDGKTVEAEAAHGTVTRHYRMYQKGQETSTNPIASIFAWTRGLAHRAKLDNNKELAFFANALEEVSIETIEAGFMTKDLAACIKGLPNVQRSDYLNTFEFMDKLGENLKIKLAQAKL
Text: MOLM14 wild-type human leukemia cells and a MOLM14 R132 construct cell line are generated by lentiviral transfection of MOLM14 cells using IDH1 WT (doxycycline inducible) pSLIK-IDH1-FLAG (Addgene Plasmid #66802) and IDH1 R132H (doxycycline inducible) pSLIK-IDH1-R132H-FLAG (Addgene Plasmid #66803), and is kindly provided by Dr. Jean-Emmanuel Sarry (Centre de Recherches en Cancérologie de Toulouse, UMR1037, Inserm, Université de Toulouse 3 Paul Sabatier, Toulouse, France; bioRxiv 749580; doi.org/10.1101/749580). MOLM14-WT and MOLM14-R132 mutant cells are seeded in 6 well plates (lx 10^6/well) in 5 ml of complete RPMI medium containing 10% FBS (Sigma) and 1× Pen/Strep (Sigma). After induction with 2 μg/ml doxycycline, the cells are incubated in 37 degree for 4 days.
Cells are seeded in 12 wells plates (100,000 cells/well) in 1 mL, in triplicate. Cells are treated with 2 μg/ml doxycycline to induce IDH1 expression, then treated with DMSO, 0.1 or 1 μM Compound A, and incubated at 37 degrees C. for 4 days.
65 μL of media are collected and centrifuged, and 60 μL of the supernatant media are collected and frozen at −80 degrees C.
LCMS 2-HG Metabolite Analysis.
The effects of IDH1 inhibition on the concentrations of total 2-HG and (α-KG) are determined by liquid chromatography-mass spectrometry (LC-MS) analysis of cell culture supernatant. Calibration curves are prepared by spiking 2-HG and α-KG into cell culture media. The method utilizes derivatization with O-benzylhydroxylamine prior to analysis by LC-MS. Ten microliters of each standard or sample is placed into a deep-well 96-well plate and combined with 100 μL of internal standard solution containing 10 μM d5-2-hydroxyglutarate and 10 μM d6-α-KG. 50 μL of 1 M O-benzylhydroxylamine in pyridine buffer (8.6% pyridine, pH 5) and 50 μL of 1 M N-(3-dimethylaminopropyl)-N-ethylcarbodiimide hydrochloride (EDC) in pyridine buffer is added to each sample. The derivatization reaction proceeds at room temperature for one hour. […] Analyte concentrations for the unknowns are back-calculated from the calibration curves.

AML-PDX = AML-PDX Model; type: in vivo, NSG mice; settings: peripheral blood, following 6 weeks of treatment, individual animals
Method: Male NSG mice (6-9 weeks of age, The Jackson Laboratory) are irradiated with 250 cGy and on the next day, injected intravenously with AML-PDX (1×10^6 cells/100 μL). Peripheral blood is collected via the retro-orbital route and processed to measure hCD45+ cells by flow cytometry to confirm the establishment of leukemia. When leukemia engraftment reaches more than 1%, mice are randomly grouped for treatment with vehicle, Compound A (10 mg/kg, daily oral gavage), venetoclax (50 mg/kg, oral gavage for 2 weeks on and 1 week off (2 cycles)) or the combination of venetoclax (50 mg/kg, oral gavage for 2 weeks on and 1 week off (2 cycles)) and Compound A (10 mg/kg, daily oral gavage). Additional dosing may be employed beyond the 2 cycles stated above based on the assessment of the level of residual disease remaining following 6 weeks of treatment. Peripheral blood is collected once every two weeks via the retro-orbital route and processed to measure leukemia burden (% hCD33+/hCD45+ cells) by flow cytometry, and to measure differentiation (% hCD14+ cells percentage out of total hCD45+ cells)). Sixty-five μL stain/wash buffer (5% heat inactivated (HI)-FBS in DPBS) is added per tube, mixed up and down 3 to 4 times by pipette, and 100 μL of the blood suspension is transferred to 5 mL polypropylene tubes. The stains are added according to the manufacturer's instructions (anti-human CD33-APC (BD Biosciences cat #551378), anti-human CD14-PE-Cy7 (BD Biosciences cat #557742), anti-human CD45-APC-Cy7 (BD Biosciences cat #557833). The samples are incubated for 30 minutes at room temperature, protected from light. After the incubation, 1.5 mL 1× BD Lyse/Fix buffer (37° C., (BD #558049)) is added to each sample and incubated for 12 minutes at room temperature. The tubes are then centrifuged at 1500 RPMI for 5 minutes. BD Lyse/Fix solution is aspirated and the cell pellet washed with stain/wash buffer 2 times. Fixed cells are then resuspended in 200 μL stain/wash buffer then transferred to filtered flow tubes. Samples are analyzed on a Gallios Flow cytometer (Beckman, Texas) using standard flow cytometry principles and technique. Population gating and data analysis of percent population are performed in the Flow Jo software.

mutant IDH1 = settings: from WO 2018/111707 A1; cited from earlier work
[2] = system: MOLM14 wild-type and MOLM14 R132 cells; assay: Cell Viability Assay (Annexin V/DAPI flow cytometry: % viable cells and % apoptosis); type: cell-based, human
Method: MOLM14 wild-type and MOLM14 R132 cells are treated with 2 μg/ml doxycycline to induce expression of IDH1 WT and IDH1-R132H and then incubated at 37 degrees C. for 4 days. Cells are seeded in 4 (12 wells) plates at 10,000 cells/well in 1 mL growth media containing 2 ug/mL doxycycline.
Cells are treated with: DMSO (in triplicate), or with Compound A at 0, 125, 250, 500, 1000 nM (each in triplicate) as described in the following: After the initial induction described above, 0.5 mL media with 1× of doxycycline plus 1× Compound A or DMSO is added and incubated for 3 days. After the 3 days, another 0.5 mL aliquot of fresh media with 1×doxycyline plus 1×compound A or DMSO is added and incubated for 3 further days. Venetoclax (0, 25, 50, 100, 200 nM) is then added as a single agent or in combination with 1× Compound A. Two days later, cells are collected in flow cytometry filtered tubes, and processed for flow cytometry. Cells are washed with Annexin V Binding Buffer (ABB, 2 mL) [1 M Hepes buffer (10 mL), 5 M NaCl (28 mL), 1 M CaCl2 (5 mL), H2O (957 mL)], and then centrifuged at 1500 rpm for 5 min. Cells are stained with ABB (50 μL), with APC Annexin V Antibody (1 μL, Biolegend cat #640941), and kept in the dark for 20 minutes. Cells are washed with ABB (2 mL) and centrifuged at 1500 rpm for 5 min. DAPI (Invitrogen cat #D3571) and counting beads (Invitrogen cat #C36950) are added in Annexin V binding buffer [DAPI (5 μL, 2 μg/mL)+counting beads (5 μL (520,000 beads per 50 μL))+ABB (150 μL)] in a total volume 160 μL/tube, then analyzed with a Gallios flow cytometer (Beckman Coulter). Cells collection is stopped when counting beads reach 250 beads per sample. Kalusa software is used for analysis. The percentage of gated Annexin V-negative/DAPI-negative cells constitutes % viable cells, while the percentage of Annexin V-positive cells constitutes % apoptosis.

[3] = Compound A 10 mg/kg daily oral gavage, 10 mg/kg
[4] = venetoclax 50 mg/kg oral gavage, 2 weeks on and 1 week off (2 cycles)

Question: Which results are given for `C=CC(=O)N1CCN([C@@H](CC2CC2)c2ccc([C@H](C)Nc3ncc4c(n3)N(CC)C(=O)OC4)cc2)CC1` [Compound A, 7-[[(1S)-1-[4-[(1S)-2-cyclopropyl-1-(4-prop-2-enoylpiperazin-1-yl)ethyl]phenyl]ethyl]amino]-1-ethyl-4H-pyrimido[4,5-d][1,3]oxazin-2-one]?
Answer: 2-HG ([1]; 0.1 μM Compound A): 3.369 µM and 3.044 µM and 3.488 µM; 2-HG ([1]; 1 μM Compound A): 3.578 µM and 3.199 µM and 3.378 µM; 2-HG production by mutant IDH1 (in words) ([1]; MOLM14 R132 cell line construct): inhibits 2-HG production; AML cell differentiation (% hCD14+ of hCD45+) (AML-PDX; [3]): 44.1% and 58.3% and 63.6% and 64.1% and 51.7% and 58.9%; Leukemic burden (% hCD33+hCD45+ of total white cells) (AML-PDX; [3]): 87.8% and 88.5% and 51.5% and 65.6% and 85.1% and 81.9%; 2-HG production (in words) (mutant IDH1): selectively inhibits 2-HG production; α-KG levels (in words) (mutant IDH1): without affecting α—KG levels; % Annexin V + as a measure of apoptosis ([2]; Compound A 125 nM alone): 5.56% and 4.3% and 5.12%; % Cell Viability ([2]; Compound A 125 nM alone): 95.14% and 94.27%; % Annexin V + as a measure of apoptosis ([2]; Compound A 250 nM alone): 6.18% and 4.95% and 4.92%; % Cell Viability ([2]; Compound A 250 nM alone): 94.27% and 94.41%; % Annexin V + as a measure of apoptosis ([2]; Compound A 500 nM alone): 5.82% and 5.23% and 5.19%; % Cell Viability ([2]; Compound A 500 nM alone): 93.92% and 94.15%; % Annexin V + as a measure of apoptosis ([2]; Compound A 1000 nM alone): 7.2% and 5.51% and 7.52%; % Cell Viability ([2]; Compound A 1000 nM alone): 93.98% and 91.68%; viability at 0.125 µM ([2]; Homo sapiens, MOLM-14, Compound A 125 nM alone): 93.7%; viability at 0.25 µM ([2]; Homo sapiens, MOLM-14, Compound A 250 nM alone): 93.3%; viability at 0.5 µM ([2]; Homo sapiens, MOLM-14, Compound A 500 nM alone): 93.7%; viability at 1 µM ([2]; Homo sapiens, MOLM-14, Compound A 1000 nM alone): 92%

Question: For `CC1(C)CCC(CN2CCN(c3ccc(C(=O)NS(=O)(=O)c4ccc(NCC5CCOCC5)c([N+](=O)[O-])c4)c(Oc4cnc5[nH]ccc5c4)c3)CC2)=C(c2ccc(Cl)cc2)C1` [Venetoclax, venetoclax, reference compound], which “AML cell differentiation (% hCD14+ of hCD45+)” value (AML-PDX; [4]) is on record?
Answer: 37.7% and 26% and 40.7% and 32.6%

Question: What about the “Leukemic burden (% hCD33+hCD45+ of total white cells)” value (AML-PDX; [4]) of the same compound?
Answer: 10.1% and 63% and 14.1% and 54.9%

Question: What about the viability at 0.025 µM ([2]; Homo sapiens, MOLM-14, 48 h, venetoclax 25 nM alone, 2 days) of the same compound?
Answer: 76.1%

Question: And the viability at 0.05 µM ([2]; Homo sapiens, MOLM-14, 48 h, venetoclax 50 nM alone, 2 days)?
Answer: 76.9%

Question: What about the viability at 0.1 µM ([2]; Homo sapiens, MOLM-14, 48 h, venetoclax 100 nM alone, 2 days) of the same compound?
Answer: 70.4%

Question: What about the viability at 0.2 µM ([2]; Homo sapiens, MOLM-14, 48 h, venetoclax 200 nM alone, 2 days) of the same compound?
Answer: 55.2%

Question: What about the “% Annexin V + as a measure of apoptosis” value ([2]; venetoclax 25 nM alone) of the same compound?
Answer: 19.1% and 15.93% and 19.16%

Question: And the “% Cell Viability” value ([2]; venetoclax 25 nM alone, 2 days)?
Answer: 81.78% and 77.84%

Question: And the “% Annexin V + as a measure of apoptosis” value ([2]; venetoclax 50 nM alone)?
Answer: 18.22% and 16.34% and 17.15%

Question: And the “% Cell Viability” value ([2]; venetoclax 50 nM alone, 2 days)?
Answer: 80.63% and 78.78%

Question: What about the “% Annexin V + as a measure of apoptosis” value ([2]; venetoclax 100 nM alone) of the same compound?
Answer: 24.62% and 18.98% and 22.98%

Question: And the “% Cell Viability” value ([2]; venetoclax 100 nM alone, 2 days)?
Answer: 73.78%

Question: What about the “% Annexin V + as a measure of apoptosis” value ([2]; venetoclax 200 nM alone) of the same compound?
Answer: 41.67% and 35.73% and 41.22%

Question: And the “% Cell Viability” value ([2]; venetoclax 200 nM alone, 2 days)?
Answer: 59.27% and 56.31%
